Data as given in patent US20190225989A1, “GENE KNOCKIN METHOD AND KIT FOR GENE KNOCKIN” (Institute of Hematology and Blood Disease Hospital, CAMS & …, priority 2018, published 2019).

B1: RAD51: key factor in the homologous recombination pathway, given as EF1-driven expression plasmid (protein, UniProt Q06609 2-339, looked up)
DNA repair protein RAD51 …: AMQMQLEANADTSVEEESFGPQPISRLEQCGINANDVKKLEEAGFHTVEAVAYAPKKELINIKGISEAKADKILAEAAKLVPMGFTTATEFHQRRSEIIQITTGSKELDKLLQGGIETGSITEMFGEFRTGKTQICHTLAVTCQLPIDRGGGEGKAMYIDTEGTFRPERLLAVAERYGLSGSDVLDNVAYARAFNTDHQTQLLYQASAMMVESRYALLIVDSATALYRTDYSGRGELSARQMHLARFLRMLLRLADEFGVAVVITNQVVAQVDGAAMFAADPKKPIGGNIIAHASTTRLYLRKGRGETRICKIYDSPCLPEAEAMFAINADGVGDAKD
modifications: expressed from EF1 plasmid

Tests used:
Assay type in all cases: cell-based, human
CTNNB1 locus in iPSCs [1] = experiment: Effects of small molecules and factors on HDR efficiency, FACS; conditions: for effect on HDR efficiency at the CTNNB locus: donor pD-mNeonGreen-sg-HA300-300 bp, added first 24 h: RS-1 10 μM, Nu7441 2 μM, SCR7 1 μM, Brefeldin A 0.1 μM, L755507 5 μM
Text: (§1) In this experiment, the verified highly efficient pD-sg-HA300-300 bp double cut donor and multiple small molecules were used to examine the effects on HDR of both the CTNNB1 and PRDM14 loci in iPSCs. Multiple small molecules include RS-1 (a stimulator of human homologous recombination protein RAD51), NU7441 (a DNA-PKcs inhibitor), SCR7 (a DNA ligase IV inhibitor), Brefeldin A, L755507, and
(§2) iPSCs were evenly split into eight wells after nucleofection with Cas9/sgRNA and the relevant double cut donor (pD-mNeonGreen-sg-HA300-300 bp or pD-GFP-sg-HA300-300 bp). DMSO control (0.1%), RS-1 (10 μM), Nu7441 (2 μM), SCR7 (1 μM), Brefeldin A (0.1 μM), L755507 (5 μM), Nocodazole (100 ng/mL), or Nu7441 (2 μM) and SCR7 (1 μM) were added in the wells for the first 24 h and then the medium was changed with fresh medium thereafter. Three days after nucleofection, cells were harvested for FACS analysis to determine the HDR efficiency in each condition.
(§3) The plasmid encoding RAD51, Ad4E1B-Eorf46, or CCND1 was co-transfected with Cas9, sgRNA, and donor plasmid (pD-mNeonGreen-sg-HA300-300 bp or pD-GFP-sg-HA300-300 bp). Three days after transfection, cells were harvested for FACS analysis to determine the HDR efficiency in each condition.
(§4) In this experiment, CCND1 and Nocodazole were used together to examine the effects on HDR of both the CTNNB1 and PRDM14 loci in iPSCs. The plasmid encoding CCND1 was co-transfected with Cas9, sgRNA, and donor plasmid (pD-mNeonGreen-sg-HA300-300 bp or pD-GFP-sg-HA300-300 bp). Nocodazole (100 ng/mL) was added into the medium at 0-24 h after transfection. Three days after incubation, cells were harvested for FACS analysis to determine the HDR efficiency in each condition.

PRDM14 locus in iPSCs [2] = experiment: as above
Text: as §1, §2, §3, §4

[3] = system: CTNNB1 locus in the H1 ES cells; experiment: Effects of small molecules on HDR efficiency, FACS; conditions: FACS day 3; for effect on HDR efficiency at the CTNNB locus: donor pD-mNeonGreen-sg-HA300-300 bp, added first 24 h: RS-1 10 μM, Nu7441 2 μM, SCR7 1 μM, Brefeldin A 0.1 μM, L755507 5 μM
Description: as §2, with “In this experiment, the H1 ES cells” for “iPSCs”

[4] = system: PRDM14 locus in the H1 ES cells; experiment: Effects of small molecules on HDR efficiency, FACS; conditions: FACS day 3; for effect on HDR efficiency at the PRDM14 locus: donor pD-GFP-sg-HA300-300 bp, added first 24 h: RS-1 10 μM, Nu7441 2 μM, SCR7 1 μM, Brefeldin A 0.1 μM, L755507 5 μM
Description: as §2, with “In this experiment, the H1 ES cells” for “iPSCs”

CTNNB1 locus in iPSCs [5] = experiment: sgRNA cleavage efficiency at CTNNB1; conditions: targets 39 bp before the stop codon, data not shown
PRDM14 locus in iPSCs [6] = experiment: sgRNA cleavage efficiency at PRDM14; conditions: cleavage site 4 bp downstream of the stop codon, data not shown
[7] = donor pD-GFP-sg-HA300-300 bp, added first 24 h: RS-1 10 μM, Nu7441 2 μM, SCR7 1 μM, Brefeldin A 0.1 μM, L755507 5 μM, FACS day 3, vs DMSO
[8] = Nocodazole 100 ng/mL first 24 h, FACS day 3, vs DMSO, P<0.001
[9] = Nocodazole 100 ng/mL first 24 h

Molecule | effect on HDR efficiency at the CTNNB locus (CTNNB1 locus in iPSCs [1]; FACS day 3, vs DMSO) | effect on HDR efficiency at the PRDM14 locus (PRDM14 locus in iPSCs [2]; [7]) | effect on HDR efficiency at the CTNNB locus [3] | effect on HDR efficiency at the PRDM14 locus [4] | other results
C[C@H]1CCC/C=C/[C@@H]2C[C@H](O)C[C@H]2[C@H](O)/C=C/C(=O)O1 [Brefeldin A] | less pronounced improvement | only at the CTNNB locus | less pronounced improvement | only at the CTNNB locus | –
CCCCCCNC(=O)Nc1ccc(S(=O)(=O)Nc2ccc(CCNC[C@H](O)COc3ccc(O)cc3)cc2)cc1 [L755507] | did not show significant improvement | did not show significant improvement | did not show significant improvement | did not show significant improvement | –
COC(=O)Nc1nc2ccc(C(=O)c3cccs3)cc2[nH]1 [Nocodazole] | – | – | – | – | increase of HDR efficiency at the CTNNB locus (CTNNB1 locus in iPSCs [1]; [8]): ~50%; increase of HDR efficiency at the PRDM14 locus (PRDM14 locus in iPSCs [2]; [8]): ~50%; increase of HDR efficiency at the CTNNB locus [3, 9]: ~50%; increase of HDR efficiency at the PRDM14 locus [4, 9]: ~50%
O=c1cc(N2CCOCC2)oc2c(-c3cccc4c3sc3ccccc34)cccc12 [Nu7441, NU7441] | less pronounced improvement | only at the CTNNB locus | less pronounced improvement | only at the CTNNB locus | –
O=C(Nc1ccc(Br)cc1)c1ccc(Br)c(S(=O)(=O)NCc2ccccc2)c1 [RS-1] | did not show significant improvement | did not show significant improvement | did not show significant improvement | did not show significant improvement | –
O=c1[nH]c(=S)[nH]c(N=Cc2ccccc2)c1N=Cc1ccccc1 [SCR7] | did not show significant improvement | did not show significant improvement | did not show significant improvement | did not show significant improvement | –
sgCTNNB1: sgRNA targeting 39 bp before the CTNNB1 stop codon, GCTGATTGCTGTCACCTGG (SEQ ID NO: 5) (listed as DNA, chemistry not given here) | – | – | – | – | cleavage efficiency (CTNNB1 locus in iPSCs [5]): 60%
sgPRDM14: sgRNA targeting the sequence surrounding the PRDM14 stop codon, GAAGACTACTAGCCCTGCC (SEQ ID NO: 11) (listed as DNA, chemistry not given here) | – | – | – | – | cleavage efficiency (PRDM14 locus in iPSCs [6]): ~30%
B1 | – | – | – | – | effect on HDR efficiency at the CTNNB1 locus (CTNNB1 locus in iPSCs [1]; expression plasmid co-transfected with Cas9, sgRNA and pD-mNeonGreen-sg-HA300-300 bp, FACS day 3, P<0.001): significantly decreased; effect on HDR efficiency at the PRDM14 locus (PRDM14 locus in iPSCs [2]; expression plasmid co-transfected with Cas9, sgRNA and pD-GFP-sg-HA300-300 bp, FACS day 3, P<0.001): significantly decreased
